Earlier results on one molecule are cited in patent US20070191365A1, “3,4,6-Substituted pyridazines for treating neuropathic pain and associated syndromes” (priority 2006, published 2007).

This series concerns animal model of Alzheimer's disease. The note with it: Ranaivo et al., J Neurosci. (2006) 26:662-670.

Turning to `c1ccc(-c2cc(-c3ccccc3)c(N3CCN(c4ncccn4)CC3)nn2)cc1` [4,6-diphenyl-3-(4-(pyrimidin-2-yl)piperazin-1-yl)pyridazine], the “efficacy in an animal model of Alzheimer's disease” value is “exhibits efficacy”.
